Key:
Settings in all cases: incubation time: 72 h
MFM-223 = assay: normalised response (% of control), CellTiter-Glo; higher = more viable cells (100 = DMSO, 0 = benzethonium chloride kill control)
Summary of the method: (§1)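 Each value is the plate-normalised signal at one concentration of the series. Breast cancer cell lines (20 µl suspension) were incubated 72 h in 384-well plates with compound at 5 concentrations in 10-fold steps over a compound-specific 10,000-fold range. CellTox Green and then CellTiter-Glo were read, and each plate was scaled to 0.1 % DMSO (100) and a positive kill control (0).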

BT-549 = assay: as above
Summary of the method: as §1

MDA-MB-231 [1] = assay: as above
Summary of the method: as §1

SK-BR-3 = assay: as above
Summary of the method: as §1

CAL-51 = assay: as above
Summary of the method: as §1

MCF-10A = assay: as above
Summary of the method: as §1

DU-4475 = assay: as above
Summary of the method: as §1

CAL-148 = assay: as above
Summary of the method: as §1

MDA-MB-453 = assay: as above
Summary of the method: as §1

MDA-MB-468 = assay: as above
Summary of the method: as §1

CAL-120 = assay: as above
Summary of the method: as §1

BT-474 = assay: as above
Summary of the method: as §1

HCC1937 [2] = assay: as above
Summary of the method: as §1

CAL-85-1 = assay: as above
Summary of the method: as §1

MDA-MB-436 = assay: as above
Summary of the method: as §1

HCC1143 = assay: as above
Summary of the method: as §1

Hs578T [3] = assay: as above
Summary of the method: as §1

HCC1599 = assay: as above
Summary of the method: as §1

HDQ-P1 = assay: as above
Summary of the method: as §1

HCC1937 [4] = assay: drug sensitivity score (DSS), CellTox Green (DSS (AUC-based score)); higher = stronger drug effect (viability inhibition or cytotoxicity); extreme values may be limits of the assay
Summary of the method: (§2)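 After 72 h of incubation in 384-well plates with compound at 5 concentrations (10-fold steps, 10,000-fold range set per compound), breast cancer cell lines seeded in 20 µl suspension were read first for CellTox Green fluorescence at 485/520 nm. CellTiter-Glo luminescence was measured next, after 10 min at room temperature. Normalisation on each plate used 0.1 % DMSO and a positive kill control, and the drug sensitivity score was computed from the area under the fitted dose-response curve.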

Hs578T [5] = assay: as above
Summary of the method: as §2

MDA-MB-231 [6] = assay: as above
Summary of the method: as §2

Structure (SMILES)	normalised response (MFM-223)	normalised response (BT-549)	normalised response (MDA-MB-231 [1])	normalised response (SK-BR-3)	normalised response (CAL-51)	normalised response (MCF-10A)	normalised response (DU-4475)	normalised response (CAL-148)	normalised response (MDA-MB-453)	normalised response (MDA-MB-468)	normalised response (CAL-120)	normalised response (BT-474)	normalised response (HCC1937 [2])	normalised response (CAL-85-1)	normalised response (MDA-MB-436)	normalised response (HCC1143)	normalised response (Hs578T [3])	normalised response (HCC1599)	normalised response (HDQ-P1)	drug sensitivity score (HCC1937 [4])	drug sensitivity score (Hs578T [5])	drug sensitivity score (MDA-MB-231 [6])
COc1cccc2c1C(=O)c1c(O)c3c(c(O)c1C2=O)C[C@@](O)(C(=O)CO)C[C@@H]3O[C@H]1C[C@H](N)[C@H](O)[C@H](C)O1 [Doxorubicin] (100 nM)	115%	78.3%	95.9%	92.2%	39%	106%	80.7%	82.7%	117%	71.4%	98.6%	82.9%	107%	103%	85.4%	105%	98.7%	115%	98.7%	–	–	–
N#CC[C@H](C1CCCC1)n1cc(-c2ncnc3[nH]ccc23)cn1 [Ruxolitinib] (1000 nM)	91%	96.3%	104%	90.2%	121%	80.6%	99.6%	99.9%	84.3%	90.8%	89.4%	90.2%	103%	95.8%	101%	92.9%	105%	100%	98.2%	–	–	–
OC[C@H]1O[C@@H](n2cnc3c2N=CNC[C@H]3O)C[C@@H]1O [Pentostatin] (1000 nM)	103%	95.7%	108%	104%	92.4%	105%	98%	94.4%	97.8%	99.4%	95.6%	93.9%	100%	100%	102%	104%	105%	103%	94.1%	–	–	–
CC[C@]1(O)C[C@@H]2CN(CCc3c([nH]c4ccccc34)[C@@](C(=O)OC)(c3cc4c(cc3OC)N(C)[C@H]3[C@@](O)(C(=O)OC)[C@H](OC(C)=O)[C@]5(CC)C=CCN6CC[C@]43[C@@H]65)C2)C1 [Vinblastine] (100 nM)	44.1%	35.6%	40.1%	14.2%	31.6%	72.4%	61.9%	42%	57.5%	34.7%	62.9%	52.3%	67.7%	37.2%	25.3%	56.6%	22.4%	26.6%	71.9%	–	–	–
Nc1nc(Cl)nc2c1ncn2[C@H]1C[C@H](O)[C@@H](CO)O1 [Cladribine] (100 nM)	101%	77.7%	93.3%	111%	90.1%	107%	101%	97.8%	106%	93.8%	94.5%	97.1%	90.3%	104%	104%	100%	100%	112%	97.5%	–	–	–
C[C@]1(c2nc3c(C(N)=O)cccc3[nH]2)CCCN1 [Veliparib] (1000 nM)	107%	103%	103%	101%	72.6%	91.3%	98.6%	96.2%	109%	104%	97%	93.8%	101%	115%	95.4%	105%	105%	104%	102%	–	–	–
Cc1ccc(F)c(NC(=O)Nc2ccc(-c3cccc4[nH]nc(N)c34)cc2)c1 [Linifanib] (100 nM)	110%	103%	111%	112%	75.2%	105%	98.7%	109%	112%	104%	114%	106%	102%	100%	112%	105%	98%	104%	103%	–	–	–
CS(=O)(=O)c1ccc(C(=O)Nc2ccc(Cl)c(-c3ccccn3)c2)c(Cl)c1 [Vismodegib] (1000 nM)	95.2%	101%	95.9%	86.5%	105%	94.9%	98.9%	98.8%	89.6%	94.9%	90.9%	90.3%	95.5%	103%	93.3%	89.2%	101%	118%	98.4%	–	–	–
S=c1[nH]cnc2nc[nH]c12 [Mercaptopurine] (1000 nM)	93.7%	103%	66.6%	95.2%	108%	94.2%	79.7%	85%	98.6%	91.8%	88.8%	75.6%	59.4%	92.6%	88.7%	95.3%	71.8%	80.5%	47.7%	–	–	–
Clc1ccc(C(c2ccccc2Cl)C(Cl)Cl)cc1 (stereo not given) [Mitotane]	–	–	–	–	–	–	–	–	–	–	–	–	–	–	–	–	–	–	–	1.4	0	–
C=CC[C@@H]1/C=C(\C)C[C@H](C)C[C@H](OC)[C@H]2O[C@@](O)(C(=O)C(=O)N3CCCC[C@H]3C(=O)O[C@H](/C(C)=C/[C@@H]3CC[C@@H](O)[C@H](OC)C3)[C@H](C)[C@@H](O)CC1=O)[C@H](C)C[C@@H]2OC [Tacrolimus] (1000 nM)	101%	102%	106%	88.5%	109%	102%	100%	96.6%	108%	105%	101%	97.4%	101%	95.1%	99.7%	98.4%	96%	121%	105%	–	–	–
C=CCNC1=C2C[C@@H](C)C[C@H](OC)[C@H](O)[C@@H](C)/C=C(\C)[C@H](OC(N)=O)[C@@H](OC)/C=C\C=C(/C)C(=O)NC(=CC1=O)C2=O [Tanespimycin] (1000 nM)	39.2%	33.4%	23.5%	38.5%	26%	14.6%	0.04%	24.1%	28.9%	42.3%	51.8%	21.1%	29%	27.9%	43.3%	36%	38.2%	57.8%	22.8%	–	–	–
O=C(c1ccc(C(=O)N2CCC(N3CCCC3)CC2)c(Nc2ccccc2)c1)N1CCC(N2CCCC2)CC1 [UNC1215]	–	–	–	–	–	–	–	–	–	–	–	–	–	–	–	–	–	–	–	0	–	0
Clc1ccc(C(c2ccccc2Cl)C(Cl)Cl)cc1 (stereo not given) [Mitotane] (1000 nM)	97.4%	100%	101%	94.2%	98.3%	91.7%	95.3%	95.7%	92.5%	98.7%	97.7%	92%	99.6%	101%	98.2%	94.1%	104%	121%	101%	–	–	–
Nc1ccn([C@@H]2O[C@H](CO)[C@@H](O)[C@@H]2O)c(=O)n1 [Cytarabine] (1000 nM)	101%	61.9%	86.8%	46.7%	39.7%	104%	77.8%	55.5%	105%	74.3%	88%	90.6%	85.2%	94.5%	46.4%	80.6%	81.6%	93.4%	92%	–	–	–
COc1cccc2cc(-c3nc([C@H]4CC[C@H](C(=O)O)CC4)n4ncnc(N)c34)[nH]c12 [OSI-027] (1000 nM)	72.5%	74.6%	85.5%	48.2%	92.4%	87%	89.3%	93.1%	71.2%	84.2%	77.3%	79.6%	81.2%	76.2%	80.2%	90.8%	96.6%	118%	66.1%	–	–	–
CN1CCC(COc2cnc(-c3cccc(Cn4nc(-c5cccc(C#N)c5)ccc4=O)c3)nc2)CC1	–	–	–	–	–	–	–	–	–	–	–	–	–	–	–	–	–	–	–	0	–	0
CN1CC[C@H](c2c(O)cc(O)c3c(=O)cc(-c4ccccc4Cl)oc23)[C@H](O)C1 [Alvocidib] (1000 nM)	14%	5.76%	3.01%	2.44%	9.5%	11.2%	10.1%	26.1%	28%	8.32%	35.2%	20%	29.1%	8.63%	14.2%	17.1%	10.1%	17.2%	19.8%	–	–	–
Cc1c2oc3c(C)ccc(C(=O)N[C@@H]4C(=O)N[C@H](C(C)C)C(=O)N5CCC[C@H]5C(=O)N(C)CC(=O)N(C)[C@@H](C(C)C)C(=O)O[C@@H]4C)c3nc-2c(C(=O)N[C@@H]2C(=O)N[C@H](C(C)C)C(=O)N3CCC[C@H]3C(=O)N(C)CC(=O)N(C)[C@@H](C(C)C)C(=O)O[C@@H]2C)c(N)c1=O [Dactinomycin] (100 nM)	26.6%	6.05%	2.57%	11.3%	2.69%	5.33%	0.24%	2.05%	6.8%	3.22%	19.8%	6.79%	18.9%	6.91%	17%	8.6%	7.79%	8.92%	21.8%	–	–	–
